Laboratory results taken from ChEMBL document CHEMBL1201862, “PubChem BioAssay data set” (2004).
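These data come from cells grown in 96-well plates and exposed to compound for 48 hours at five concentrations. At the GI50, growth is halved.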 Active and inactive are the calls of the source. No stated cut-off is given here; in the data, active = GI50 up to about 1.1 µM and inactive = higher.

Key:
Assay in all cases: NCI tumour cell line growth inhibition, 48 h
M14 = test system: M14
HOP-62 = test system: HOP-62
HCT-15 = test system: HCT-15
UO-31 = test system: UO-31
SF-539 = test system: SF-539
KM12 = test system: KM12
HCC 2998 = test system: HCC 2998
MDA-MB-435 = test system: MDA-MB-435
NCI-H226 = test system: NCI-H226
CAKI-1 = test system: CAKI-1
UACC-257 = test system: UACC-257
MCF7 = test system: MCF7
RPMI-8226 = test system: RPMI-8226
NCI/ADR-RES = test system: NCI/ADR-RES
SR = test system: SR
MOLT-4 = test system: MOLT-4
K562 = test system: K562
SK-OV-3 = test system: SK-OV-3

Row | SMILES | GI50 (M14) | GI50 (HOP-62) | GI50 (HCT-15) [µM] | GI50 (UO-31) | GI50 (SF-539) | GI50 (KM12) | GI50 (HCC 2998) | GI50 (MDA-MB-435) | GI50 (NCI-H226) | GI50 (CAKI-1) | GI50 (UACC-257) | GI50 (MCF7) | GI50 (RPMI-8226) | GI50 (NCI/ADR-RES) | GI50 (SR) | GI50 (MOLT-4) | GI50 (K562) | GI50 (SK-OV-3)
1 | CCOC(=O)n1c2ccccc2c2c(O)c(OC)c3c(c21)C(=O)NC3=O | 25.8 µM (inactive) | 23 µM (inactive) | 17.3 | 33.1 µM (inactive) | 57.5 µM (inactive) | 50.8 µM (inactive) | 12.2 µM (inactive) | 60 µM (inactive) | 7.59 µM (inactive) | 20.7 µM (inactive) | 45.8 µM (inactive) | 54.3 µM (inactive) | 58.5 µM (inactive) | 28.6 µM (inactive) | 20.5 µM (inactive) | 19.5 µM (inactive) | 40.9 µM (inactive) | 34.6 µM (inactive)
2 | Cc1cccc(CC(Cc2c(C)cccc2C(=O)O)C(=O)O)c1 (configuration not stated) | > 100 µM (inactive) | > 100 µM (inactive) | 31.3 | > 100 µM (inactive) | > 100 µM (inactive) | > 100 µM (inactive) | 67.6 µM (inactive) | > 100 µM (inactive) | > 100 µM (inactive) | > 100 µM (inactive) | > 100 µM (inactive) | > 100 µM (inactive) | > 100 µM (inactive) | > 100 µM (inactive) | > 100 µM (inactive) | > 100 µM (inactive) | > 100 µM (inactive) | > 100 µM (inactive)
3 | CC[C@@]1(O)C[C@H](OC2CC(N(C)C)C(O)C(C)O2)c2c(O)c3c(c(O)c2[C@H]1OC1CC(N(C)C)C(O)C(C)O1)C(=O)c1cccc(O)c1C3=O (some centres not stated) | 0.0357 µM (active) | 0.0404 µM (active) | 0.0585 | 0.0275 µM (active) | 0.0531 µM (active) | 0.028 µM (active) | 0.0284 µM (active) | 0.0341 µM (active) | 0.0219 µM (active) | 0.0195 µM (active) | 0.146 µM (active) | 0.0321 µM (active) | 0.0409 µM (active) | 0.177 µM (active) | 0.0385 µM (active) | 0.0817 µM (active) | 0.0267 µM (active) | 0.0397 µM (active)
4 | NS(=O)(=O)c1ccc(NC2(C(=O)O)CCCC2)cc1 | > 100 µM (inactive) | > 100 µM (inactive) | > 100 | > 100 µM (inactive) | > 100 µM (inactive) | > 100 µM (inactive) | > 100 µM (inactive) | > 100 µM (inactive) | > 100 µM (inactive) | > 100 µM (inactive) | > 100 µM (inactive) | > 100 µM (inactive) | > 100 µM (inactive) | > 100 µM (inactive) | > 100 µM (inactive) | > 100 µM (inactive) | > 100 µM (inactive) | > 100 µM (inactive)
5 | Cc1nccn1S(=O)(=O)c1ccc(Cl)cc1 | 41.7 µM (inactive) | 58.2 µM (inactive) | 41.6 | 58.3 µM (inactive) | 32.7 µM (inactive) | 42.5 µM (inactive) | 29.2 µM (inactive) | 22.7 µM (inactive) | 74.8 µM (inactive) | 42 µM (inactive) | 42.5 µM (inactive) | 45 µM (inactive) | 48.6 µM (inactive) | 43.6 µM (inactive) | 38 µM (inactive) | 56.9 µM (inactive) | 37.8 µM (inactive) | 87.5 µM (inactive)
6 | CCN1CCC(O)(c2ccc([N+](=O)[O-])cc2)C(C(=O)c2ccc([N+](=O)[O-])cc2)C1 (configuration not stated) | 18.1 µM (inactive) | 77.3 µM (inactive) | 21.3 | 17.3 µM (inactive) | 14.3 µM (inactive) | 17 µM (inactive) | 17.7 µM (inactive) | 20.5 µM (inactive) | 26.3 µM (inactive) | 22.3 µM (inactive) | 17.9 µM (inactive) | 15.4 µM (inactive) | 3.33 µM (inactive) | 53.8 µM (inactive) | 33 µM (inactive) | 19.3 µM (inactive) | 36.8 µM (inactive) | > 100 µM (inactive)
7 | N#Cc1cnn2ccn(C3OC(COC(=O)c4ccccc4)C(OC(=O)c4ccccc4)C3OC(=O)c3ccccc3)c12 (configuration not stated) | > 21.5 µM (inactive) | > 21.5 µM (inactive) | > 21.5 | > 21.5 µM (inactive) | > 21.5 µM (inactive) | 17.3 µM (inactive) | > 21.5 µM (inactive) | > 21.5 µM (inactive) | > 21.5 µM (inactive) | 17.2 µM (inactive) | > 21.5 µM (inactive) | > 46.5 µM (inactive) | > 21.5 µM (inactive) | > 21.5 µM (inactive) | > 31.6 µM (inactive) | > 21.5 µM (inactive) | > 21.5 µM (inactive) | > 21.5 µM (inactive)
8 | COc1cc2cc(C(=O)N3CC(CCl)c4c3cc(NC(=O)OCc3ccc([N+](=O)[O-])cc3)c3ccccc43)[nH]c2c(OC)c1OC (configuration not stated) | 29 µM (inactive) | 16.3 µM (inactive) | > 50.2 | 0.125 µM (active) | > 48.6 µM (inactive) | > 42.5 µM (inactive) | 0.0226 µM (active) | > 100 µM (inactive) | > 100 µM (inactive) | 0.153 µM (active) | > 71.3 µM (inactive) | 36.1 µM (inactive) | 13.3 µM (inactive) | 3.67 µM (inactive) | 0.0432 µM (active) | 9.73 µM (inactive) |  | < 0.01 µM (active)
9 | C=C(C)CCC1CC=[N+]([O-])OC1C(C)(C)C (configuration not stated) | 21.1 µM (inactive) | 79.3 µM (inactive) | 26.1 | 30.3 µM (inactive) | 72.6 µM (inactive) | 28.2 µM (inactive) | > 100 µM (inactive) | 16.1 µM (inactive) | 15.5 µM (inactive) | 26.2 µM (inactive) | 58.6 µM (inactive) | 15.5 µM (inactive) | 41.3 µM (inactive) | 27.3 µM (inactive) | 36.3 µM (inactive) | 39.2 µM (inactive) | > 100 µM (inactive) | > 100 µM (inactive)
10 | COc1cc(C(=O)C2C(=O)c3ccccc3C2C2(O)c3ccccc3CC2C(O)c2cc(OC)c(OC)c(OC)c2)cc(OC)c1OC (configuration not stated) | > 100 µM (inactive) | 17.6 µM (inactive) | > 100 | > 100 µM (inactive) | 37.2 µM (inactive) | > 100 µM (inactive) | > 100 µM (inactive) | > 100 µM (inactive) | > 100 µM (inactive) | > 100 µM (inactive) | > 100 µM (inactive) | > 100 µM (inactive) | 15.2 µM (inactive) | > 100 µM (inactive) | > 100 µM (inactive) | > 100 µM (inactive) | > 100 µM (inactive) | 32.1 µM (inactive)
11 | Nc1cccc(C#Cc2cccc(C#Cc3cccc(N)n3)n2)n1 | > 100 µM (inactive) | > 100 µM (inactive) | > 100 | > 100 µM (inactive) | 39.9 µM (inactive) | > 100 µM (inactive) | > 100 µM (inactive) | 89.9 µM (inactive) | > 100 µM (inactive) | > 100 µM (inactive) | > 100 µM (inactive) | > 100 µM (inactive) | 91 µM (inactive) | > 100 µM (inactive) | 14 µM (inactive) | 32.8 µM (inactive) | > 100 µM (inactive) | > 100 µM (inactive)
12 | COC(=O)CP1(=O)OC2C(C3CCC2(C)C3(C)C)N1c1cc(C(F)(F)F)cc(C(F)(F)F)c1 (configuration not stated) | 32.3 µM (inactive) | 31.2 µM (inactive) | 24.4 | 32.9 µM (inactive) | 21.9 µM (inactive) | 17.1 µM (inactive) | 22.9 µM (inactive) | 22.1 µM (inactive) | 31.6 µM (inactive) | 24.9 µM (inactive) | 32.8 µM (inactive) | > 100 µM (inactive) | 15.9 µM (inactive) | 20.6 µM (inactive) | 24.8 µM (inactive) | 16.7 µM (inactive) | 19.5 µM (inactive) | 33.4 µM (inactive)
13 | c1ccc2cc(-c3cc(-c4cc(-c5ccc6ccccc6c5)on4)no3)ccc2c1 | > 100 µM (inactive) | > 100 µM (inactive) | > 100 | 96.8 µM (inactive) | > 100 µM (inactive) | > 100 µM (inactive) | 99.1 µM (inactive) | > 100 µM (inactive) | > 100 µM (inactive) | > 100 µM (inactive) | > 100 µM (inactive) | > 100 µM (inactive) | > 100 µM (inactive) | > 100 µM (inactive) | 55.7 µM (inactive) | 88.9 µM (inactive) | > 100 µM (inactive) | > 100 µM (inactive)
14 | O=C1CC(c2ccsc2)n2cccc21 (configuration not stated) | > 100 µM (inactive) | > 100 µM (inactive) | > 100 | > 100 µM (inactive) | > 100 µM (inactive) | > 100 µM (inactive) | > 100 µM (inactive) | > 100 µM (inactive) | > 100 µM (inactive) | > 100 µM (inactive) | > 100 µM (inactive) | > 100 µM (inactive) | > 100 µM (inactive) | > 100 µM (inactive) | > 100 µM (inactive) | > 10 µM (inactive) | > 100 µM (inactive) | > 100 µM (inactive)
15 | CC1(C)N=c2c(ncn2Cc2ccccc2)=C(C(N)=O)N1 | > 100 µM (inactive) | > 100 µM (inactive) | > 100 |  | > 100 µM (inactive) | > 100 µM (inactive) | > 100 µM (inactive) | > 100 µM (inactive) | > 100 µM (inactive) | > 100 µM (inactive) | > 100 µM (inactive) | > 100 µM (inactive) | > 100 µM (inactive) | > 100 µM (inactive) | > 100 µM (inactive) |  | > 100 µM (inactive) | > 100 µM (inactive)
